Measured values as given in PubChem BioAssay (NCI).
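Protocol summary: plate cells (96-well), add compound at 5 concentrations, incubate 48 h, interpolate endpoints linearly. Here, GI50 denotes the concentration required for 50% inhibition of growth. TGI: concentration producing complete growth inhibition.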

What was measured:
Assay in all cases: NCI tumour cell line growth inhibition, 48 h
OVCAR-5 ovarian = tested on: OVCAR-5 ovarian
TK-10 renal = tested on: TK-10 renal
UACC-257 melanoma = tested on: UACC-257 melanoma
SK-MEL-28 melanoma = tested on: SK-MEL-28 melanoma
NCI-H522 lung = tested on: NCI-H522 lung
HOP-92 NSCLC = tested on: HOP-92 NSCLC
CCRF-CEM leukemia = tested on: CCRF-CEM leukemia
RPMI-8226 leukemia = tested on: RPMI-8226 leukemia
EKVX NSCLC = tested on: EKVX NSCLC
NCI-H226 lung = tested on: NCI-H226 lung

Row | SMILES | GI50 (OVCAR-5 ovarian) [µM] | TGI (OVCAR-5 ovarian) [µM] | GI50 (TK-10 renal) [µM] | TGI (TK-10 renal) [µM] | GI50 (UACC-257 melanoma) [µM] | TGI (UACC-257 melanoma) [µM] | GI50 (SK-MEL-28 melanoma) [µM] | TGI (SK-MEL-28 melanoma) [µM] | GI50 (NCI-H522 lung) [µM] | TGI (NCI-H522 lung) [µM] | GI50 (HOP-92 NSCLC) [µM] | TGI (HOP-92 NSCLC) [µM] | GI50 (CCRF-CEM leukemia) [µM] | TGI (CCRF-CEM leukemia) [µM] | GI50 (RPMI-8226 leukemia) [µM] | TGI (RPMI-8226 leukemia) [µM] | TGI (EKVX NSCLC) [µM] | TGI (NCI-H226 lung) [µM] | GI50 (EKVX NSCLC) [µM] | GI50 (NCI-H226 lung) [µM]
1 | C=CCn1c(C)nc2ccc(Nc3nc(Nc4ccc(F)cc4)nc4ccccc34)cc21 | 11.6 | 26.6 | 6.83 | 24.6 | 13.1 | 29.9 | 1.65 | 3.13 | 3.12 | 13.4 | 0.585 | 6.97 | 3.01 | 11.7 | 1.85 | 4.57 |  |  |  | 
2 | COC/C=C\COC |  | > 100 |  | > 100 |  | > 100 |  | > 100 |  |  |  | > 100 |  | > 100 |  | > 100 | > 100 | > 100 |  | 
3 | C=C(CC(NC(=O)c1ccc(C(CC)Cc2cnc3nc(N)nc(N)c3n2)cc1)C(=O)O)C(=O)O (stereo unspecified) |  |  |  | > 100 | 0.0599 | > 100 |  | > 100 |  |  |  |  |  | > 100 |  | > 100 | > 100 | > 100 |  | 
4 | CCC[CH2][Sn]([Cl])([Cl])[CH2]CCC | 1.51 | 2.89 | 0.569 | 1.77 | 0.854 | 2.26 | 0.363 | 1.36 |  |  | 1.15 | 2.64 | 0.221 | 0.781 | 0.198 | 0.723 | 2.25 | 5.01 | 0.848 | 1.82
5 | C=CCNc1nc2c(s1)C(=O)c1ccccc1C2=O |  | 37.5 |  | 34.2 |  | 7.2 |  | 32.8 |  | 21.4 |  | 21.8 |  |  |  | 17.4 | 29 | 40.1 |  | 
6 | COC(=O)C1C(O)CCC2CN3CCc4c([nH]c5ccccc45)C3CC21 (stereo unspecified) |  | > 100 |  | > 100 |  | > 100 |  | > 100 |  | > 100 |  | > 100 |  |  |  | > 100 | > 100 | > 100 |  | 
7 | CC(C)(C)c1cc(C(O)(C(F)(F)F)C(F)(F)F)c2c(c1)C(C(F)(F)F)(C(F)(F)F)OC(C)(C(C)(C)C)N2 (stereo unspecified) |  | > 100 |  |  |  | 27.4 |  | 28.6 |  | 5.24 |  |  |  |  |  | 9.25 | 22.4 | 8.53 |  | 
8 | COc1ccc(/C=C/C(=O)/C=C/c2cc3ccccc3[nH]c2=O)cc1 | 5.13 | 19.9 | 5.45 | 17.4 | 10.8 | 25.3 | 13.9 | 34.7 | 1.97 | 4.67 |  |  | 2.98 | 9.68 | 1.77 | 5.02 |  | 19.7 |  | 4.42
9 | CC[n+]1oc(C(=O)c2ccc(Cl)cc2)c(-c2ccccc2)c1-c1ccccc1.[Cl][Fe]([Cl])([Cl])[Cl] | 82.4 | > 100 | 33.4 | > 100 |  | 15.5 | 38 | > 100 |  |  | 27.1 | 62.9 | 14.8 | 39.4 | 19.6 | 54.2 | > 100 | > 100 | 30.4 | 75.2
10 | CCc1ccc(NC(=O)NC(=O)c2ccccc2[N+](=O)[O-])cc1Oc1ncc(Cl)cn1 |  | > 100 |  | > 100 |  | > 100 |  | > 4.64 |  |  |  | > 100 |  | > 100 |  | > 4.64 | > 100 | 0.0796 |  | 
11 | CCCCCCCCOC(=O)CC[C@@H](C)[C@H]1CC[C@H]2[C@@H]3[C@H](OC(=O)CCN)C[C@@H]4C[C@H](OC(=O)CCN)CC[C@]4(C)[C@H]3C[C@H](OC(=O)CCN)[C@]12C | 3.24 | 10.1 |  |  | 3.84 | 16.5 | 3.52 | 15.1 | 2.26 | 4.42 | 2.29 | 6.74 |  |  | 8.42 | 33.6 |  | 44.8 |  | 13
12 | O=C1c2ccccc2-[n+]2ccc3c([nH]c4ccccc43)c21 |  | 1.48 |  | 2.72 |  | 1.88 |  | 1.16 |  | 1.3 |  |  |  | 2.27 |  | 0.468 | 1.6 | 3.08 |  | 
13 | CC(Oc1ccc2c(-c3ccccc3)cc(=O)oc2c1)C(=O)O (stereo unspecified) |  |  |  | > 100 |  | > 100 |  | > 100 |  | > 100 |  | > 100 |  | > 100 |  |  | > 100 | > 100 |  | 
14 | O=C(Cc1nc2ccccc2c(=O)n1-c1ccccc1Cl)c1ccncc1 |  | > 100 |  | > 100 |  | > 100 |  | > 100 |  | > 100 |  | > 100 |  | > 100 |  |  | > 100 | > 100 |  | 
15 | CCC(=O)c1c(NOC2OCC(OC(C)=O)C(OC(C)=O)C2OC(C)=O)nc(OC)n(C)c1=O (stereo unspecified) |  | > 100 |  | > 100 |  | > 100 |  | > 100 |  |  |  | > 100 |  | > 100 |  | > 100 | > 100 | > 100 |  | 
16 | COc1ccc(NC(=O)CC2SC(=Nc3ccccc3C)NC2=O)c([N+](=O)[O-])c1 (stereo unspecified) |  | > 100 |  | > 100 |  | > 100 |  | > 100 |  | 80.5 |  | > 100 |  |  |  | > 100 |  | > 100 |  | 
17 | CCC(O)c1ccc(Br)cc1NC(=O)c1cccc(Cl)c1 (stereo unspecified) | 32.3 | > 100 | 41.7 | > 100 | 18.4 | 35.1 | 23.9 | 64.8 | 19.8 | 81 | 12.1 | 65.6 | 20.5 | 58.9 | 11.4 | 48.3 |  | 64.6 |  | 21.5
18 | COc1cc2nc(SCc3cc(OC)c(OC)c(OC)c3)n(Cc3ccccc3)c(=O)c2cc1OC | 16.3 | > 100 | 10.8 | 32.4 | 5.25 | > 100 | 3.88 | > 100 | 0.744 | 5.83 | 1.79 | 8.97 | 3 | > 100 | 2.84 | > 100 |  | > 100 |  | 6.85
